Data set [1] relates to Normal Human Epidermal Keratinocytes (NHEK). Put plainly: Proliferation assay vs Normal Human Epidermal Keratinocytes (NHEK growth inhibition). The format is cell-based. The following applies: Dulbecco's modified Eagle's medium, 10% fetal calf serum, 37° C., 5% CO2, Giemsa, 650 nm, read-out: ED50 NHEK. The procedure:
In these experiments, NHEK's were cultured in Dulbecco's modified Eagle's medium with 10% fetal calf serum at 37° C., 5% CO2. Each well of a 96 well plate was seeded with 2000 cells in 200 μl of each drug dilution in duplicate. A plate was stopped and fixed for each time point, stained with Giemsa and then read in a Titertek plate reader at 650 nm, and the absorbances were calibrated with known cell numbers on control plates. NHEK's were obtained from Clonetics Corporation at the secondary stage.

The subject of data set [2] is nucleotide biosynthesis in normal human epidermal keratinocyte cells. Put plainly: inhibition of nucleotide biosynthesis in normal human epidermal keratinocyte cells in vitro. On the set-up: dose or concentration left out as unconfirmed. The format is cell-based. An excerpt:
It has been known that it is the hyperproliferation of these cells in humans which causes psoriasis.

For data set [3] the following is noted: cited from earlier work; for side effects: psoriasis treatment; for clearing lesions: psoriasis, experimental use as chemotherapeutic agents; for effectiveness in treating psoriasis: inhibitors of purine or pyrimidine nucleotide biosynthesis.

Values after ≈ are worked out from the molar mass of the structure shown.

With `NC(=O)c1nnn(Cc2cc(Cl)c(Cc3ccc(Cl)c4ccccc34)c(Cl)c2)c1N` [Cl, Cl, CH2, α-Naphth-4-Cl, 5-Amino-l-[4-[(4-chloro-l-naphthalene)methyl]-3,5dichlorobenzyl]-1,2,3-triazole-4-carboxamide], the IC50 in data set [1] was found to be 0.3 mg/L (≈ 0.651 µM).

On to `NC(=O)c1nnn(Cc2cc(Cl)c(C(=O)c3cccc4ccccc34)c(Cl)c2)c1N` [Cl, Cl, CO, α-Naphth, 5-Amino-l-[4-(l-naphthoyl)-3,5-dichlorobenzyl]-l,2,3-triazole-4-carboxamide], for which the IC50 in data set [1] was 0.3 mg/L (≈ 0.681 µM).

Regarding `NC(=O)c1nnn(Cc2cc(Cl)c(C(=O)c3ccc4ccccc4c3)c(Cl)c2)c1N` [Cl, Cl, CO, β-Naphth, 5-Amino-1-[4-(2-naphthoyl)-3,5-dichlorobenzyl]-1,2,3-triazole-4-carboxamide], the IC50 in data set [1] was determined as 1 mg/L (≈ 2.27 µM).

As to `NC(=O)c1nnn(Cc2cc(Cl)c(Oc3ccc(Cl)c4ccccc34)c(Cl)c2)c1N` [Cl, Cl, O, α-Naphth-4-Cl, 5-Amino-l-[4-[(4-chloro-l-naphthalene)oxy]-3,5dichlorobenzyl]-1,2,3-triazole-4-carboxamide], the IC50 in data set [1] was 0.3 mg/L (≈ 0.648 µM).

On to `NC(=O)c1nnn(Cc2cc(Cl)c(C(=O)c3ccc(Cl)c4ccccc34)c(Cl)c2)c1N` [Compound A, 5-amino-l-(4-(4-chloronaphthoyl)-3,5-dichlorobenzyl)-1,2,3-triazole-4-carboxamide], for which the IC50 in data set [1] stood at 0.08 mg/L (≈ 0.169 µM). Further, the “efficacy in inhibiting nucleotide biosynthesis” value in data set [2] is “inhibiting nucleotide biosynthesis”.

On to `COc1c(C)c2c(c(O)c1C/C=C(\C)CCC(=O)O)C(=O)OC2` [Mycophenolic acid], for which the effect on psoriasis entry in data set [3] (mycophenolic acid given orally) is given as “controls psoriasis by causing remission”. In addition, in data set [3], the side effects result is recorded as “unacceptable side effects” and the clearing lesions result is recorded as “success in clearing lesions”.

For `O=C(O)C[C@H](NC(=O)CP(=O)(O)O)C(=O)O` [N-phosphonacetyl-L-aspartate], in data set [3], the “effectiveness in treating psoriasis” value was “effective in treating the disease” and the side effects result is “unacceptable side effects due to toxicity”.

Regarding `NC(=O)c1nnn(Cc2cc(Cl)c(C(=O)c3ccc(Cl)cc3)c(Cl)c2)c1N` [Reference compound], the IC50 in data set [1] fell in the range of 0.5 to 1 mg/L (≈ 1.18 to 2.35 µM).

`O=c1[nH]cc(F)c(=O)[nH]1` [fluorouracil]: in data set [3], the “effectiveness in treating psoriasis” value is reported as “effective in treating the disease” and the side effects entry was “unacceptable side effects due to toxicity”.

For `CN(Cc1cnc2nc(N)nc(N)c2n1)c1ccc(C(=O)N[C@@H](CCC(=O)O)C(=O)O)cc1` [methotrexate], in data set [3], the “effectiveness in treating psoriasis” value is “effective in treating the disease” and the side effects result is “unacceptable side effects due to toxicity”.

Turning to `Nc1nc2nc[nH]c2c(=S)[nH]1` [thioguanine], in data set [3], the “effectiveness in treating psoriasis” value is listed as “effective in treating the disease”, the side effects entry was “unacceptable side effects due to toxicity” and the clearing lesions result is on record as “success in clearing lesions”.

The values above are taken from US4923885A, “5-amino-1-(4-naphthoylbenzyl)-1,2,3-triazole-4-carboxamides and analogs as antiproliferative agents” (Merck & Co., Inc., priority 1988, dated 1990).
